According to patent US20090053793A1, “Ethanol resistant and furfural resistant strains of E. coli FBR5 for production of ethanol from cellulosic biomass” (Rowan University, priority 2006, published 2009):

Assay: Pilot batch fermentation in LB broth with xylose
Set-up: species or system E. coli
Settings: pilot fermentations
Experimental: Pilot fermentation studies were conducted in a 3L fermentation vessel in conjunction with a BioFlo 3000 system (which is marketed by New Brunswick Scientific Co. of Edison, N.J.) to monitor temperature, dissolved oxygen, air flow rate, agitation rate and pH. The media used for fermentation consisted of LB broth, xylose at various concentrations, and ampicillin. For some runs, glucose was also added to the media (see the mixed sugar fermentation discussed in connection with FIG. 12 below). To ensure sterility, the fermentor, with the media inside, along with the condenser, and a flask of distilled water were autoclaved the day before each fermentation run. An overnight culture of the strain to be used in the fermentation was then grown the night before each run. The fermentor was connected to the BioFlo 3000 system when ready to begin the run. […] The nitrogen and water flows were then opened, whereby the fermentor was ready for the addition of the overnight culture. The following was then added to the fermentor: (1) 300 mL of sterile, filtered LB broth, (2) an amount of xylose determined as a function of the desired initial sugar concentration, (3) an amount of ampicillin such that the initial concentration in the fermentor was always 100 mg/L, and (4) the overnight culture, whereby fermentation began. […]

For O=C[C@H](O)[C@@H](O)[C@H](O)CO [xylose], the “xylose concentration found to inhibit cell growth and ethanol production” value was greater than 175 g/L.
